Assays:
osteoclast gelatinase = experiment: Inhibition of osteoclast gelatinase ([3H-methyl] gelatin degradation by culture media); assay type: biochemical, chicken
Method: Post-incubation media from cultured chicken osteoclasts were partially-purified, then incubated with [^3 H-methyl] gelatin for 4 hours at 37° C. in the presence of 1.2 mM APMA to activate any latent Pro-gelatinase. The incubations were carried out in the presence (or absence) of several different concentrations (0.001-1000 μM) of a bisphosphonate, Didronel (Etidronic Acid); where appropriate, CMT-1 was added at a final concentration of 50 μM. After the 4 hour incubation, the reaction was stopped by the addition of 45% Trichloroacetic acid and carrier gelatin, the mixture was centrifuged, and aliquots of the supernatant, containing the radiolabeled gelatin degradation fragments, were counted in a liquid scintillation spectrometer.

[1] = molecular target: T1, Recombinant human MT1 -MMP (MMP-14) (Homo sapiens, UniProt P50281); experiment: β-casein degradation by MT1-MMP; assay type: biochemical; conditions: single agent, 2 μM (suboptimal)
T1 construct: purchased In Vitro-Tek, Berlin, Germany
Method: Also, suboptimal inhibitory doses of CMT's and bisphosphonate, alone and in combination, were tested on pure human recombinant MT1 -MMP and MMP-9 activities using a β-casein-degradation assay.
Recombinant human ([…]) MT1 -MMP (also called MMP-14) (In Vitro-Tek, Berlin, Germany) was pretreated with buffer (none), 2 μM CMT-3 and 2 μM bisphosphonate clodronate (clodrinate) and combinations of 2 μM CMT-3 and 2 μM clodrinate for 1 h at 37° C. Subsequently, substrate β-casein (52 μM) was added to the incubation mixtures, and incubations continued for 60 min at 37° C.

LPS-injected rats [2] = experiment: Tooth mobility in LPS-induced periodontitis rat model; assay type: in vivo; conditions: for effect on tooth mobility / effect on pathologic tooth mobility: Examples 1 and 2; for effect on pathologic tooth mobility: 2 mg; for reduction in tooth mobility: Example 3, day 7, vs untreated LPS-injected rats, CMT-8 1 mg/day oral, clodronate 1 mg/week s.c., single agents not statistically significant, combination p<0.05; for tooth mobility relative to the level in saline-injected control rats: Example 3, single agents at sub-optimal dose
Excerpt: (§1) The activity of combinations of various tetracyclines and bisphosphonates was investigated in vivo. […] This procedure produces marked inflammation in the periodontal tissues and induces elevated levels of tissue-destructive matrix metalloproteinases (MMPs) and serine proteinases such as elastase in the gingiva leading to severe alveolar bone resorption and bone loss around the affected teeth, all within the 7-day experimental protocol. In brief, adult male rats with this experimentally-induced inflammatory disease were either left untreated, or treated with sub-optimal doses of (1) a CMT by itself; (II) a bisphosphonate by itself, or (III) a combination of (I) and (II). At the end of the experimental protocol, tooth mobility and alveolar bone loss, and levels of various tissue destructive MMP collagenases and gelatinases and serine enzymes in the gingiva, were measured.
(§2) For in vivo Examples, Thirty male Sprague-Dawley rates were distributed into 5 groups as follows:
Group 1: Normal. Saline injected+placebo therapy (CMC)
Group 2: LPS. LPS injected+placebo (CMC)
Group 3: CMT-8. LPS injected+CMT-8 (1 mg/day)
Group 4: Clodronate. LPS injected+Clodronate (1 mg/week)
Group 5: Combo. LPS+CMT-8 (1 mg/day)+Clodronate (1 mg/week)
(§3) The treatments were administered by oral gavage once per day (CMT-8) throughout the entire 7 day period, or by a single subcutaneous injection (clodrinate).
(§4) LPS (lipopolysaccharide)-induced periodontitis rat model: Twenty four hours before treatment, the rats were injected into the upper anterior gingivae and into the palatal papillae between 1st and 2nd upper molars with 10 μL of LPS (1 mg/ml) or saline solution, for a total of 10 μg LPS per site injected. The LPS injections were repeated every other day to complete the three injections.
(§5) On day 7, all rats were anesthetized, blood samples were collected by cardiac puncture and rats were sacrificed. Tooth mobility was checked and the gingival tissue was dissected and stored at -80° C. for subsequent enzyme analysis. The jaws were defleshed for bone loss determination.
(§6) The first experiment was designed to select sub-optimal doses of both CMT-8 (a chemically-modified, non-antibacterial tetracycline) and clodronate (a bisphosphonate) in the endotoxin-induced bone loss model. Groups of rats (n=5-6 rats/group) were anesthetized and injected directly into the gingival tissues with either saline (control group) or with LPS endotoxin every other day over a 7-day time period. Twenty-four hours after the first injection, groups of rats were administered by oral gavage either 0, 0.5mg, 1 mg, or 2mg CMT-8 daily for the next 6 days. At the end of the experiment, the rats were anesthetized, blood was drawn by intracardiac puncture, the rats were euthanized and the gingival tissues dissected for enzyme analysis. In addition, tooth mobility was scored and, after defleshing the jaws, alveolar bone loss around the teeth was scored morphometrically using a computer-assisted system.
(§7) In a third experiment, 30 adult male rats were distributed into the following experimental groups: saline-injected group; groups injected with endotoxin and then administered no drug, CMT-8 alone (1 mg/day), clodronate alone (1 mg/week), or a combination of the same sub-optimal doses of both drugs. The experiment was terminated on day 7. As described above, the gingival tissues were dissected, extracted and the partially-purified extracts analyzed for neutral proteinase (elastase and matrix metalloproteinase) activities, and both tooth mobility and alveolar bone loss were assessed.
In FIG. 1, tooth mobility is based on the following scoring system:
1=slight movement (vestibule-palatal)
2=medium movement (vestibule-palatal)
3=severe movement (vertical mobility in and out of socket)

LPS-injected rats [3] = experiment: Alveolar bone loss in LPS-induced periodontitis rat model (morphometric analysis of defleshed jaws); assay type: in vivo; conditions: for effect on pathologic bone loss: 2 mg
Excerpt: as §1, §2, §3, §4, §5, §6, §7

collagenase = experiment: Gingival collagenase activity ([3H-methyl] collagen substrate, SDS-PAGE/fluorography) in extracts from treated LPS-injected rats; assay type: in vivo, rat; conditions: Example 3; total collagenase after 1.2 mM APMA activation; vs untreated LPS-injected rats; CMT-8 1 mg/day, clodronate 1 mg/week
Method: as §4, §5
as §7, with “assessed. […]” for “assessed.”

[4] = 0.5 mg, CMT-8 daily oral gavage, clodronate single subcutaneous injection
[5] = 1 mg (selected sub-optimal dose)
[6] = CMT-8 daily oral gavage, clodronate single subcutaneous injection
[7] = 0.5 mg, CMT-8 daily oral gavage, clodronate single subcutaneous injection, Examples 1 and 2
[8] = 1 mg (selected sub-optimal dose), Examples 1 and 2
[9] = CMT-8 daily oral gavage, clodronate single subcutaneous injection, Examples 1 and 2
[10] = Example 3, day 7, CMT-8 1 mg/day oral, clodronate 1 mg/week s.c.

SMILES | inhibition of osteoclast gelatinase activity (osteoclast gelatinase; 50 μM CMT-1, 4 hours at 37° C., 1.2 mM APMA) | inhibition of β-casein degradation by MT1-MMP [1] | effect on tooth mobility (LPS-injected rats [2]; [4]) | effect on tooth mobility (LPS-injected rats [2]; [5]) | effect on pathologic tooth mobility (LPS-injected rats [2]; [6]) | reduction in tooth mobility (LPS-injected rats [2]) [%] | tooth mobility relative to the level in saline-injected control rats (LPS-injected rats [2]) | effect on alveolar bone loss (LPS-injected rats [3]; [7]) | effect on alveolar bone loss (LPS-injected rats [3]; [8]) | effect on pathologic bone loss (LPS-injected rats [3]; [9]) | effect on alveolar bone loss (LPS-injected rats [3]; [10]) | reduction of gingival collagenase activity (collagenase) | inhibition of osteoclast gelatinase activity (osteoclast gelatinase; Didronel at 0.001, 0.1, 10, and 1000 μM final concentrations)
CC1(O)c2cccc(O)c2C(=O)C2=C(O)C3(O)C(=O)C(C(N)=O)=C(O)CC3CC21 (stereo not drawn) [CMT-1, 4-de(dimethylamino)tetracycline] | about 79% | – | – | – | – | – | – | – | – | – | – | – | –
NC(=O)C1=C(O)C2(O)C(=O)C3=C(O)c4c(O)cccc4CC3CC2CC1=O (stereo not drawn) [CMT-3, 6-demethyl-6-deoxy-4-de(dimethylamino)tetracycline] | – | relative slight inhibition | – | – | – | – | – | – | – | – | – | – | –
CC1c2cccc(O)c2C(O)=C2C(=O)[C@]3(O)C(O)=C(C(N)=O)C(=O)C[C@@H]3[C@@H](O)[C@@H]21 (stereo partly drawn) [CMT-8, 6-deoxy-5α-hydroxy-4-de(dimethylamino)tetracycline] | – | – | no significant effects | either no, or barely detectable beneficial effects | essentially returned the pathologic tooth mobility and bone loss, induced by bacteria endotoxin, to control levels | 18 | more than twice the level seen in the control rats | no significant effects | either no, or barely detectable beneficial effects | essentially returned the pathologic tooth mobility and bone loss, induced by bacteria endotoxin, to control levels | reduced alveolar bone loss only slightly, if at all | 22-31% | –
CC(O)(P(=O)(O)O)P(=O)(O)O [Didronel, Etidronic Acid] | – | – | – | – | – | – | – | – | – | – | – | – | did not show any detectable inhibition
O=P(O)(O)C(Cl)(Cl)P(=O)(O)O [clodronate, dichloromethane diphosphonic acid] | – | relative slight inhibition | no significant effects | either no, or barely detectable beneficial effects | essentially returned the pathologic tooth mobility and bone loss, induced by bacteria endotoxin, to control levels | 18 | more than twice the level seen in the control rats | no significant effects | either no, or barely detectable beneficial effects | essentially returned the pathologic tooth mobility and bone loss, induced by bacteria endotoxin, to control levels | reduced alveolar bone loss only slightly, if at all | 22-31% | –

— patent US5998390A, “Combination of bisphosphonate and tetracycline” (The Research Foundation of State University of New York, priority 1998, dated 1999)
